This note sets out measurements from PMC5469811, “Identification of GXXXXG motif in Chrysophsin-1 and its implication in the design of analogs with cell-selective antimicrobial and anti-endotoxin activities” (Scientific Reports, 2017).

Test [1] deals with Candida albicans (ATCC 10231). The test is described as follows: microbe, parasite or virus in culture. Format: cell-based. Particulars: read-out: Minimum inhibitory concentration (MIC). The method, then: (§1) The anti- fungal activity of peptides was performed according to the standard micro broth dilution technique as per NCCLS guidelines. These plates were incubated in a moist chamber at 35 °C, and an absorbance at 492 nm was recorded on a VersaMax microplate reader after 48 h for C. albicans ATCC 10231 and C. parapsilosis ATCC 22019 and 72 h for C. neoformans.

Test [2] concerns Candida parapsilosis (ATCC 22019). The test is described as follows: microbe, parasite or virus in culture. The class given is cell-based. The settings on record: read-out: Minimum inhibitory concentration (MIC). The method, then: as §1
The test system of a further test is Cryptococcus neoformans. The test is described as follows: microbe, parasite or virus in culture. Format: cell-based. The settings on record: 72 h, read-out: Minimum inhibitory concentration (MIC). The procedure: as §1
The subject of test [3] is Sporothrix schenckii (Patient isolates). The test is described as follows: microbe, parasite or virus in culture. Format: cell-based. Particulars: read-out: Minimum inhibitory concentration (MIC).
The subject of test [4] is Bacillus subtilis (ATCC 6633). The test is described as follows: microbe, parasite or virus in culture. The class given is cell-based. Particulars: read-out: Minimum inhibitory concentration (MIC). The procedure: (§2) Antibacterial assay against various Gram-positive and Gram-negative strains of bacteria was performed by the serial two-fold dilution method according to the previously reported procedure, [36]. The antibacterial assays were repeated thrice and the averages of these MIC values were reported.

Test [5] concerns Escherichia coli (ATCC 25922). The test is described as follows: microbe, parasite or virus in culture. Format: cell-based. Particulars: read-out: Minimum inhibitory concentration (MIC). The method, then:
as §2

Test [6] has as its system Escherichia coli (ATCC 9637). The test is described as follows: microbe, parasite or virus in culture. The class given is cell-based. The settings on record: read-out: Minimum inhibitory concentration (MIC). The procedure:
as §2

The subject of test [7] is Klebsiella pneumoniae (ATCC 27736). The test is described as follows: microbe, parasite or virus in culture. Format: cell-based. The settings on record: read-out: Minimum inhibitory concentration (MIC). The procedure: as §2
For test [8], the system named is Pseudomonas aeruginosa (ATCC BAA-427). The test is described as follows: microbe, parasite or virus in culture. Format: cell-based. The settings on record: read-out: Minimum inhibitory concentration (MIC). The method, then: as §2
For test [9], the system named is Staphylococcus aureus (ATCC 25923). The test is described as follows: microbe, parasite or virus in culture. The class given is cell-based. Particulars: read-out: Minimum inhibitory concentration (MIC). The method, then: as §2
Test [10] has as its system Staphylococcus aureus (ATCC 29213). The test is described as follows: microbe, parasite or virus in culture. The settings on record: read-out: Minimum inhibitory concentration (MIC). Format: cell-based. The procedure: as §2
For test [11], the system named is Staphylococcus aureus (ATCC 33592) Methicillin resistant Genatmicin resistant. The test is described as follows: microbe, parasite or virus in culture. The class given is cell-based. The settings on record: read-out: Minimum inhibitory concentration (MIC). The method, then:
as §2

Test [12] relates to Staphylococcus aureus (ATCC 700698 MRSA). The test is described as follows: microbe, parasite or virus in culture. The settings on record: read-out: Minimum inhibitory concentration (MIC). The class given is cell-based. The procedure: as §2
Test [13] concerns Staphylococcus aureus (ATCC 700699 MRSA). The test is described as follows: microbe, parasite or virus in culture. Format: cell-based. The settings on record: read-out: Minimum inhibitory concentration (MIC). The procedure:
as §2

For another test, the system named is E. coli (ATCC 25922). The class given is cell-based, Escherichia coli. Particulars: ATCC 25922, 1 h. The method, then:
(§3) E. coli ATCC25922 was grown to 10^6 CFU/ml in fresh MH broth with various divalent and monovalent salts at their physiological concentrations. Serial dilutions of chrysophsin-1 and its variants prepared with the same MH broth were added to the E. coli ATCC 25922 suspensions. The bacteria were incubated at 37 °C in a shaking incubator for 18 h and the MIC values of individual peptides against E. coli ATCC 25922 were determined. Thermal tolerance of Chrysophsin-1 and its variants was checked by incubating the peptides at 4 °C, 60 °C and 90 °C for 1 h prior to MIC determination. The antibacterial activity in presence of serum was carried out by adding a final concentration of 10% fetal bovine serum in the assay diluents containing 0.4% BSA, 0.02% glacial acetic acid. The subsequent steps in both the experiments were consistent with the MIC determination method.

The test system of test [14] is E. coli ATCC 25922. The class given is cell-based, Escherichia coli. Particulars: ATCC 25922, 18 h. The method, then: as §3
For a further test, the system named is S. aureus (ATCC 25923). The class given is cell-based, Staphylococcus aureus. Particulars: ATCC 25923, 1 h. The procedure:
as §3

For test [15], the system named is E. coli ATCC 25922. The test is described as follows: Synergy with conventional antibiotics, checkerboard titration. The class given is cell-based, Escherichia coli. The procedure: The checkerboard titration method was followed to check the synergy of peptides with other antibiotics. First, 2-fold serial dilutions of the antibiotics and antimicrobial peptides were prepared. Subsequently, 50 μl each of different concentrations of antibiotics and of antimicrobial peptides was mixed and added into 100 μl of log phase bacteria culture in a 96-well plate. The plates were then incubated at 37 °C for 24 h. The fractional inhibitory concentration (FIC) index (FICI) was calculated as follows[39]: FICI=(MICofdrugAincombination)/(MICofdrugAalone)+(MICofdrugBincombination)/(MICofdrugB): FICI < 0.5 is considered to indicate synergy; 0.5 < FICI < 1.0 is considered additive; 1.0 < FICI < 4.0 is considered indifferent; and FICI > 4.0 is considered antagonism.

The test system of test [16] is Staphylococcus aureus (BAA-44)MDR. The test is described as follows: microbe, parasite or virus in culture. Particulars: BAA44; Staphylococcus aureus (BAA-44) MDR; averages of three repeats; read-out: Minimum inhibitory concentration (MIC). Format: cell-based. The procedure: as §2
Where [17] appears, read: ATCC6633, Bacillus subtilis (ATCC 6633), averages of three repeats.
Setting [18] is: ATCC25922, Escherichia coli (ATCC 25922), averages of three repeats.
The mark [19] stands for this setting: ATCC9637, Escherichia coli (ATCC 9637), averages of three repeats.
[20] abbreviates: ATCC27736, Klebsiella pneumoniae (ATCC 27736), averages of three repeats.
The mark [21] stands for this setting: ATCCBAA427, Pseudomonas aeruginosa (ATCC BAA-427), averages of three repeats.
[22] abbreviates: ATCC25923, Staphylococcus aureus (ATCC 25923), averages of three repeats.
Where [23] appears, read: ATCC29213, Staphylococcus aureus (ATCC 29213), averages of three repeats.
[24] abbreviates: ATCC33592, Staphylococcus aureus (ATCC 33592), methicillin and gentamicin resistant, averages of three repeats.
Where [25] appears, read: Staphylococcus aureus (ATCC 700698 MRSA), averages of three repeats.
The mark [26] stands for this setting: Staphylococcus aureus (ATCC 700699 MRSA), averages of three repeats.

Values after ≈ are worked out from the molar mass of the structure shown. Where two headings read alike, the source gives them in different places. Residues, ends and D or L forms follow the SMILES beside them.

On to `OC(Cn1cncn1)(Cn1cncn1)c1ccc(F)cc1F` [Fluconazole, reference compound], for which the MIC was 3.26 µM (≈ 0.998 µg/mL) in [1] (ATCC10231, Candida albicans (ATCC 10231), NCCLS micro broth dilution, 35 °C, 48 h, absorbance 492 nm); 6.53 µM (≈ 2 µg/mL) in test [2] (ATCC22019, Candida parapsilosis (ATCC 22019), NCCLS micro broth dilution, 35 °C, 48 h, absorbance 492 nm); 6.53 µM (≈ 2 µg/mL) with Cryptococcus neoformans (Cryptococcus neoformans, NCCLS micro broth dilution, 35 °C, absorbance 492 nm); 6.53 µM (≈ 2 µg/mL) in [3] (Sporothrix schenckii (patient isolates), NCCLS micro broth dilution, 35 °C).

In the case of `CC[C@H](C)[C@H](NC(=O)[C@H](C)NC(=O)CNC(=O)[C@H](CCCCN)NC(=O)[C@@H](NC(=O)[C@H](CC(C)C)NC(=O)[C@H](Cc1c[nH]c2ccccc12)NC(=O)CNC(=O)[C@H](Cc1ccccc1)NC(=O)[C@@H](N)Cc1ccccc1)[C@@H](C)CC)C(=O)N[C@@H](Cc1c[nH]cn1)C(=O)N[C@@H](C)C(=O)NCC(=O)N[C@@H](CCCCN)C(=O)N[C@@H](C)C(=O)N[C@H](C(=O)N[C@@H](Cc1c[nH]cn1)C(=O)N1CCC[C@H]1C(=O)N[C@@H](CC(C)C)C(=O)N[C@H](C(=O)N[C@@H](Cc1c[nH]cn1)C(=O)N[C@@H](CCCNC(=N)N)C(=O)N[C@@H](CCCNC(=N)N)C(=O)N[C@@H](CCCNC(=N)N)C(=O)N[C@@H](Cc1c[nH]cn1)C(N)=O)[C@@H](C)CC)[C@@H](C)CC` [Peptide G18P-Chr-1] (H-FFGWLIKGAIHAGKAIHPLIHRRRH-NH2), the MIC in test [4] (ATCC 6633) is given as 3 µM (≈ 8.79 µg/mL); in test [5] (ATCC 25922), 3 µM (≈ 8.79 µg/mL); in [6] (ATCC 9637), 3 µM (≈ 8.79 µg/mL); in [7] (ATCC 27736), 13.6 µM (≈ 39.9 µg/mL); in test [8] (ATCC BAA-427) it was 6.8 µM (≈ 19.9 µg/mL); in test [9] (ATCC 25923) it was 3 µM (≈ 8.79 µg/mL). In addition, the MIC in test [10] (ATCC 29213) was found to be 6.8 µM (≈ 19.9 µg/mL); in test [11] (ATCC 33592), 1.6 µM (≈ 4.69 µg/mL); in test [12] (ATCC 700698) it was 3 µM (≈ 8.79 µg/mL); in test [13] (ATCC 700699), 3 µM (≈ 8.79 µg/mL); in test [1] (ATCC 10231, 48 h), 13.6 µM (≈ 39.9 µg/mL); in test [2] (ATCC 22019, 48 h) it was 13.6 µM (≈ 39.9 µg/mL). Further, the MIC was 13.6 µM (≈ 39.9 µg/mL) with Cryptococcus neoformans and 27.2 µM (≈ 79.7 µg/mL) in [3] (48 h). Besides, the “Antibacterial activity (MIC) after incubating peptide at 4 °C” value in the test with E. coli (ATCC 25922) and with S. aureus (ATCC 25923) was 3 µM each time. Further, the “Antibacterial activity (MIC) after incubating peptide at 60 °C” value came out at 8.3 µM in the test with E. coli (ATCC 25922) and 33 µM in the test with S. aureus (ATCC 25923). Besides, the “Antibacterial activity (MIC) after incubating peptide at 90 °C” value was determined as 17.2 µM with E. coli (ATCC 25922) and 33 µM in the test with S. aureus (ATCC 25923). Further, the “Antibacterial activity (MIC) in the presence of 10% FBS” value with E. coli ATCC 25922 [14] amounted to 17.2 µM. The “Antibacterial activity (MIC) in the presence of FeCl3” value in the test with E. coli ATCC 25922 [14] worked out at 4.1 µM. The “Antibacterial activity (MIC) in the presence of KCl” value in the test with E. coli ATCC 25922 [14] worked out at 4.3 µM. The “Antibacterial activity (MIC) in the presence of MgCl2” value with E. coli ATCC 25922 [14] was 8.6 µM. The “Antibacterial activity (MIC) in the presence of NH4Cl” value in the test on E. coli ATCC 25922 [14] came out at 4.3 µM. For the same compound, in the test with E. coli ATCC 25922 [14], the “Antibacterial activity (MIC) in the presence of NaCl” value was 4.3 µM. Also, in the test on E. coli ATCC 25922 [15], the “interaction of peptide with chloramphenicol (by FICI)” value was “additivity”.

Turning to `CCn1cc(C(=O)O)c(=O)c2cc(F)c(N3CCNCC3)cc21` [Norfloxacin, reference compound], the MIC was found to be 1.2 µM (≈ 0.383 µg/mL) in test [4] (setting [17]); 0.3 µM (≈ 0.0958 µg/mL) in [5] (setting [18]); 0.15 µM (≈ 0.0479 µg/mL) in test [6] (setting [19]); 0.15 µM (≈ 0.0479 µg/mL) in test [7] (setting [20]); 1.22 µM (≈ 0.39 µg/mL) in test [8] (setting [21]); 1.22 µM (≈ 0.39 µg/mL) in [9] (setting [22]). Also, the MIC in [10] (setting [23]) is 2.44 µM (≈ 0.779 µg/mL); in [11] (setting [24]), 1.22 µM (≈ 0.39 µg/mL); in test [12] (setting [25]), greater than 156 µM; in test [13] (setting [26]) it was greater than 156 µM; in [16], 39.1 µM (≈ 12.5 µg/mL).

For `CNC(C)C1CCC(N)C(OC2C(N)CC(N)C(OC3OCC(C)(O)C(NC)C3O)C2O)O1` (centres unmarked) [Gentamicin, reference compound], the MIC in test [4] (setting [17]) is 1.2 µM (≈ 0.573 µg/mL); in [5] (setting [18]), 2.5 µM (≈ 1.19 µg/mL); in test [6] (setting [19]) it was 5 µM (≈ 2.39 µg/mL); in test [7] (setting [20]), 1.35 µM (≈ 0.645 µg/mL); in [8] (setting [21]), 1.35 µM (≈ 0.645 µg/mL); in [9] (setting [22]), 0.67 µM (≈ 0.32 µg/mL). The MIC in test [10] (setting [23]) was 1.35 µM (≈ 0.645 µg/mL); in [11] (setting [24]), greater than 86.8 µM; in test [12] (setting [25]), greater than 86.8 µM; in test [13] (setting [26]) it was greater than 86.8 µM; in test [16] it was greater than 86.8 µM.
